# Literature values, collected in patent US11969487B2, “Non-cellular root canal filling material and non-cellular dental tissue regeneration promoting kit” (Kowa Company, Ltd., priority 2017, dated 2024).
# Like-named read-outs stand apart in the source and are kept apart here.
# Experiments:
# [1] = tested on: dental pulp regeneration in dogs
# [2] = tested on: dental pulp stem cells on dentin surfaces; conditions: dental pulp stem cells seeded on treated dentin surfaces in vitro
substance,measurement,setting,value
trypsin,dental pulp regeneration,[1]; no transplantation of dental pulp stem cells,hardly observed
same,dental pulp regeneration,"[1]; root canals pretreated before dental pulp stem cell transplantation, middle-aged and elderly individuals",promoted
same,effect of pretreatment on the dental pulp regeneration,[1]; young dogs,no effect
same,adhesion of the cells,[2],increased
same,differentiation into odontoblasts,[2],promotion of differentiation into odontoblasts was observed
